The values below come from US5508302A, “Phospholipase A2 inhibitors” (American Home Products Corporation, priority 1994, dated 1996).

Values joined by “and” are separate entries in the source; they are usually repeats but may differ in a detail not shown here. Identical values can stand only once. Counter-ions that a name gives are not always drawn.

The test system of one test is cyclooxygenase. Nature of the test: resident murine peritoneal macrophage test, PGE2 (cyclooxygenase) by RIA. The class given is cell-based, mouse (female Swiss Webster). Conditions: for IC50: 95% confidence limits given, mouse macrophages. On the procedure: (§1) The ability of the compounds of the invention to act as inhibitors of the enzymes 5-lipoxygenase and cyclooxygenase was evaluated in the resident murine peritoneal macrophage standard pharmacological test procedure. This test procedure was carried out as follows.
Resident peritoneal macrophages were collected from female Swiss Webster mice (49 days old, 20-25 gms, Buckshire) by lavaging with 7-8 ml Hanks Balanced Salt Solution (HBSS) without Ca^++ and Mg^++ (GIBCO). The lavage fluid from several mice was pooled and centrifuged at 4° C. for 10 minutes at 400 xg. The cell pellet was resuspended in Medium 199 (GIBCO) with HEPES buffer containing 100 μg/ml gentamicin. Two ml of the cell suspension (4×10^6 cells) were then plated on 35 mm culture dishes (Nunc).
A macrophage monolayer was established after a 1-1.5 hour incubation of the cells at 37° C. in an atmosphere of […] and 5% CO2. The monolayers were washed 2x with 2 ml HBDSS, containing Ca^++ and Mg^++ after which 2 ml Medium 199 supplemented with 10% freshly thawed heat-inactivated fetal bovine serum and 100 μg/ml gentamicin was added for an overnight incubation.
(§2) Residual serum and cellular debris were removed from the monolayers by washing 3x with 2 ml HBSS containing Ca^++ and Mg^++. Macrophages were preincubated for 5 minutes with 1 ml serum-free M199 containing 10 μl dimethyl sulfoxide (DMSO) vehicle or test compound prior to cell activation with zymosan ([…]) or arachidonic acid (AA) (2 μM). After 2 hours, the supernatants are removed and either assayed for LTC4 and PGE2 by radioimmunoassay (RIA) directly or stored at -20° C. In all cases, results are expressed as ng metabolite/4×10^6 cells.
(§3) Calculations: The raw data were converted to ng metabolite/4-10^6 cells using a standard curve. Results were then expressed as percent inhibition of zymosan induced, leukotriene or prostaglandin synthesis (control) using the following equation: […]

Another test deals with T1, 5-lipoxygenase (Mus musculus, UniProt P48999).
T1 construct: Resident peritoneal macrophages were collected from female Swiss Webster mice; endogenous in cells; host or cells: resident peritoneal macrophages of female Swiss Webster mice
T1 sequence (P48999 1-674): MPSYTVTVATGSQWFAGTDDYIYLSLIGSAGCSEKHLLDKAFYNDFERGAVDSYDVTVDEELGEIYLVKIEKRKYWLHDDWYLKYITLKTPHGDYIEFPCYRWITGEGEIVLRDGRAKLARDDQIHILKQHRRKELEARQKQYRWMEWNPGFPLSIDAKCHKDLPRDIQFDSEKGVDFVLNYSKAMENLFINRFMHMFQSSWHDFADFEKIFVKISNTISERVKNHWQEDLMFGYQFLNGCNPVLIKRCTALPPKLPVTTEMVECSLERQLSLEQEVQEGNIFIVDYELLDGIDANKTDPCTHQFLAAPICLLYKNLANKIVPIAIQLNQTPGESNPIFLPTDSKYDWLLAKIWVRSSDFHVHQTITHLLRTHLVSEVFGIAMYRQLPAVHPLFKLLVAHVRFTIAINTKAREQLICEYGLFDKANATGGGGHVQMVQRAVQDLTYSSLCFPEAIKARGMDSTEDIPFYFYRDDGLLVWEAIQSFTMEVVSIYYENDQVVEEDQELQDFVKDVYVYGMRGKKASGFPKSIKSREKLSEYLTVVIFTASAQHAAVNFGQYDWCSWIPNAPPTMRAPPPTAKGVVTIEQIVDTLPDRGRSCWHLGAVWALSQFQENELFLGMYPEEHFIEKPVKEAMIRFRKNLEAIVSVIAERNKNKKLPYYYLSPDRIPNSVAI
Nature of the test: resident murine peritoneal macrophage test, LTC4 (5-lipoxygenase) by RIA. The class given is cell-based, mouse (female Swiss Webster). On the procedure: as §1
Resident peritoneal macrophages were collected from female Swiss Webster mice (49 days old, 20-25 gms, Buckshire) by lavaging with 7-8 ml Hanks Balanced Salt Solution (HBSS) without Ca^++ and Mg^++ (GIBCO). The lavage fluid from several mice was pooled and centrifuged at 4° C. for 10 minutes at 400 xg. […] Two ml of the cell suspension (4×10^6 cells) were then plated on 35 mm culture dishes (Nunc).
as §2, §3

Test [1] has as its system tetradecanoylphorbol acetate (TPA) induced ear edema. Nature of the test: TPA induced ear edema in Webster mice (dermal inflammation). Conditions: for inhibition of TPA induced ear edema: 100 mg/kg, oral, 30 min after TPA, ears measured 4 hrs after TPA. The class given is in vivo. On the procedure: Representative compounds of this invention were evaluated in an in vivo standard pharmacological test procedure that measured the effect of the representative compounds on dermal inflammation, as measured by the prevention of tetradecanoylphorbol acetate (TPA) induced ear edema in Webster mice. This test procedure was carried out as follows.
Mice were placed into plastic boxes in groups of six. Eight groups of mice received TPA topically on the right ear. TPA was dissolved in acetone at a concentration of 100 ug/ml. TPA was applied to the right ear by the means of an automatic pipette. Volumes of 10 ul were applied to the inner and outer surfaces of the ear. Each mouse received 2 ug/ear TPA. The left ear (control) received acetone delivered in the same manner. The compounds to be evaluated were given orally 30 min alter treatment with TPA.
Measurements were taken with Oditest calipers, 0-10 mm with 0.01 graduations. The right and left ears were measured 4 hrs after TPA-induced inflammation.
The difference between right and left ear thickness was calculated and the significance was determined by a one way analysis of variance with Dunnet's comparisons to control (P=0.05). Drug effects are expressed as a percent change from control values according to the following formula. [formula]

Take `CCCCCC#CCC#CCC#CCC#CCCCC(=O)O` [ETYA, reference compound]: the 50% inhibitory concentration (IC50) in the test with cyclooxygenase came out at 1.26 µM.

Turning to `O=C(CCC1CCCCCCCCCCC1=O)C1=C(O)COC1=O` (centres unmarked) [Example 1, 4-Hydroxy-3-[3-(2-oxocyclododecyl)-propionyl]-2-(5H)-furanone], the figures for the “LTC4 % Inhibition” value at 5-lipoxygenase (dose 0.1 μM) and on 5-lipoxygenase (dose 0.5 μM) were 2.1% and 38.7%, respectively. Further, the entries for the “PGE2 % Inhibition” value with cyclooxygenase (dose 0.1 μM) and in the test with cyclooxygenase (dose 0.5 μM) were -17.9% and 5.8%, respectively.

With `O=C(CCC1CCCCCCCCCCC1=O)C1=C(O)CSC1=O` (centres unmarked) [Example 2, 4-Hydroxy-3-[3-(2-Oxocyclododecyl)propionyl]-2-(5H)-thiophenone], the “LTC4 % Inhibition” value at 5-lipoxygenase (dose 0.1 μM) was -4.9%; at 5-lipoxygenase (dose 0.5 μM), 39.5%. In addition, the “PGE2 % Inhibition” value in the test with cyclooxygenase (dose 0.1 μM) was -35.0%; in the test with cyclooxygenase (dose 0.5 μM) it was 3.3%. Besides, the “inhibition of TPA induced ear edema” value in test [1] was found to be 40%.

Turning to `O=C(CCC1CCCCCCCCCCC1=NOCc1ccccc1)C1=C(O)COC1=O` (centres unmarked) [Example 3, 3-{3-[2-(Benzyloxyimino)cyclododecyl]-propionyl}-4-hydroxy-2-(5H)-furanone 2-amino-(2-hydroxymethyl)-1,3-propanediol salt], the “LTC4 % Inhibition” value was 40% on 5-lipoxygenase (dose 0.03 μM); 38% and 53% at 5-lipoxygenase (dose 0.1 μM); 64% and 68% on 5-lipoxygenase (dose 0.5 μM). The “PGE2 % Inhibition” value was 8% with cyclooxygenase (dose 0.03 μM); 86% and 59% in the test on cyclooxygenase (dose 0.5 μM). Further, the “inhibition of TPA induced ear edema” value in test [1] came out at 34%.

With `O=C(CCC1CCCCCCCCCCC1=NOCc1ccccc1)C1=C(O)CSC1=O` (centres unmarked) [Example 4, 3-{3-[2-(Benzyloxyimino)cyclododecyl]-propionyl}-4-hydroxy-2-(5H)-thiophenone 2-amino-(2-hydroxymethyl)-1,3-propanediol salt], the “LTC4 % Inhibition” value at 5-lipoxygenase (dose 0.03 μM) was 45%; at 5-lipoxygenase (dose 0.1 μM), 37% and 66%; at 5-lipoxygenase (dose 0.35 μM), 97%; at 5-lipoxygenase (dose 0.5 μM) it was 77%. Besides, the “PGE2 % Inhibition” value amounted to 18% in the test with cyclooxygenase (dose 0.03 μM), 52% in the test with cyclooxygenase (dose 0.35 μM) and 82% with cyclooxygenase (dose 0.5 μM). In addition, the “inhibition of TPA induced ear edema” value in test [1] stood at 19%.

In the case of `COc1ccc2c(c1)c(CC(=O)O)c(C)n2C(=O)c1ccc(Cl)cc1` [Indomethacin, reference compound], the “activity in TPA induced ear edema” value in test [1] (at 10 mg/g (so in the source)) was “inactive”.

In the test with cyclooxygenase, `CC(Cc1ccc(O)c(O)c1)C(C)Cc1ccc(O)c(O)c1` (centres unmarked) [NDGA, reference compound] had an IC50 of 2.15 µM.
